Nc1ncnc2nc[nH]c12
solubility (mole fraction)
Conditions | 278.15 K | 283.15 K | 288.15 K | 293.15 K | 298.15 K | 303.15 K | 308.15 K | 313.15 K | 318.15 K
in DMF | 0.00192 | 0.00205 | 0.00217 | 0.00232 | 0.00246 | 0.00262 | 0.00278 | 0.00295 | 0.00312
in DMSO | – | – | – | 0.0111 | 0.0117 | 0.0124 | 0.0131 | 0.0137 | 0.0144
in NMP | 0.0095 | 0.00971 | 0.0099 | 0.0101 | 0.0103 | 0.0105 | 0.0107 | 0.0109 | 0.0112
in propylene glycol | 0.0106 | 0.0108 | 0.0109 | 0.0111 | 0.0112 | 0.0114 | 0.0115 | 0.0117 | 0.0118
in water | 5.43e-05 | 6.88e-05 | 8.54e-05 | 0.000108 | 0.000134 | 0.000171 | 0.000216 | 0.000264 | 0.000321
